The test system of series [1] is Herpes simplex type 1 (HSV-1) strain E-377. Description: CPE-inhibition assay, herpes simplex type 1 strain E-377 in Vero cells. The series is classed as cell-based, herpes simplex virus type 1. Here is the method: (§1) The challenge viruses were propagated and assayed in cells that were pregrown as monolayer cultures in plastic tissue culture flasks and 96-well plates, using cell culture media appropriate for the host cell cultures. The following viruses and host cell cultures were employed:
(§2) green monkey kidney (Vero)
(§3) On the day of use, a weighed sample of each compound to be evaluated was dissolved and diluted in serial 10^0.5 dilutions in the culture medium appropriate for each virus-host cell system.
(§4) Mammalian cells were pregrown as monolayers in wells of COSTAR 96-well tissue culture plates using suitable cell culture media. Stock viruses were pretitered according to the method of Reed and Muench (Amer. J. Hyg. 27:493-497, 1938) and diluted in cell culture medium to yield 32 CCID50 (cell culture infectious dose, 50%) units per 0.1 ml. Antiviral assays were designed to test seven concentrations of each compound, from cytotoxic to noncytotoxic levels, in triplicate against each of the challenge viruses in microtiter plate wells containing suitable cell monolayers. To each of the replicate cell cultures were added 0.1 ml of the test drug solution and 0.1 ml of virus suspension. Cell controls containing medium alone, virus controls containing medium and virus, and drug cytotoxicity controls containing medium and each drug concentration were run simultaneously with the test samples assayed in each experiment. […] The cell monolayers were examined microscopically for virus-induced CPE and for drug cytotoxicity.
(§5) Antiviral activity was determined by calculating the degree of inhibition of virus-induced CPE in drug-treated, virus-infected cell cultures by means of a virus rating (VR). The VR is a standard weighted measurement of antiviral activity taking into account both the degree of CPE inhibition and drug cytotoxicity, and is determined by a modification of the method of Ehrlich et al. (Ann. N.Y. Acad. Sci. 130: 5-16, 1965) as described below. CPE was graded for each individual culture in each microtiter plate well according to the following scale:
(§6) 4=100% of the cells affected by virus;
(§7) 3=75% of the cells affected by virus;
(§8) 2=50% of the cells affected by virus;
(§9) 1=25% of the cells affected by virus;
(§10) 0=No CPE; normal cell monolayer.
(§11) The VR was calculated as 0.1 of the sum of the numerical differences between the recorded CPE grade of each test well and that of the corresponding virus control in the culture plate. Numerical differences between the scores of test wells containing a drug concentration which was partially cytotoxic (p) and their corresponding virus controls were halved.
(§12) The minimum inhibitory drug concentration which reduced the cytopathogenic effect (CPE) by 50% (MIC50) was calculated by using a regression analysis program for semilog curve fitting. A therapeutic index (TI) for each active compound for each susceptible virus was determined by dividing the minimum cytotoxic concentration of the test compound by the MIC50.

Series [2] concerns Herpes simplex type 2 (HSV-2) strain MS. Briefly: CPE-inhibition assay, herpes simplex type 2 strain MS in Vero cells. The series is classed as cell-based, herpes simplex virus type 2. The procedure: as §1, §2, §3, §4, §5, §6, §7, §8, §9, §10, §11, §12
Series [3] is described as follows: Drug cytotoxicity in Vero cells (microscopic, CPE-inhibition assay). The series is classed as cell-based. Particulars: african green monkey, minimum drug concentration causing any cytotoxicity, read-out: MTC. Here is the method:
as §4, §5, §12

Series [4] relates to Varicella-Zoster Virus (VZV) clinical isolate DM625. Briefly: VZV plaque reduction assay. The series is classed as cell-based. Conditions: Human alphaherpesvirus 3, 144 h, VZV in HFF; for EC50: minimum concentration required to inhibit plaque formation by 50%, read-out: MIC50. The procedure:
The compounds of the invention were evaluated for selective activity against varicella zoster virus (VCV) utilizing a plaque reduction assay procedure. The challenge virus was a clinical isolate designated DM625, obtained from Dr. Richard Whitley of the University of Alabama Hospitals, Birmingham, Ala. The virus had been passaged and titrated in cultures of human foreskin fibroblasts (HFF).
(§13) For the plaque reduction assay, sixth to twelfth passage human foreskin fibroblasts were seeded in wells of 12-well tissue culture plates and incubated at 37° C. in a humidified atmosphere containing 2% CO2 in air. Subconfluent HFF were rinsed with MEM and exposed to 0.5 ml/well of a suspension of VZV diluted in MEM+2% FBS for 2 hours at 37° C. Following the virus adsorption period, the inocula were removed and the infected cell layers were rinsed with MEM. Triplicate VZV-infected cell culture wells were treated with 1.0 ml of each concentration of test compound (in MEM+2% FBS). Six untreated virus-infected cell cultures and triplicate untreated uninfected cell cultures were fed with 1.0 ml of MEM+2% FBS to serve as controls. Wells containing uninfected HFF were treated with each concentration of test compound to monitor the test compound cytotoxicity. The 12-well plates were incubated at 37° C. in the CO2 incubator. At 48 hours post-virus infection (p.i.), fluids in all plate wells were replaced with fresh test compound and/or culture medium.
Six days p.i., the VZV plaques were counted (unstained, low magnification).The effect of each concentration of test compound on plaque formation was determined by comparing the mean number of plaques in the replicate test compound-treated cultures with the mean plaque counts of the untreated virus control cultures.
The MIC50 value is the minimum concentration of test Compound required to inhibit plaque formation by 50%.
(Plaques are areas of infected cells; plaque reduction assays count them against a control.)

Series [5] in a line: MTT test compound cytotoxicity in human foreskin fibroblasts. Format: cell-based. Conditions: hff cells, read-out: MTT assay (Percent of control). Here is the method:
as §13
The test compound cytotoxicity control cultures were examined microscopically for gross morphologic changes, then treated with MTT and 30% SDS. The blue color of the MTT formazan was measured spectrophotometrically at 570 nm. Test compound cytotoxicity was determined by comparing the absorbance (O.D.) of each test compound control with the mean O.D. of the cell control cultures and expressed as percent of control.
A general note: Formazan colour is commonly taken as a measure of viable cells.

Series [6] relates to Herpes Simplex Virus Type 1. Description: Neutral red dye uptake assay for antiviral activity, HSV-1 in Vero cells. Format: cell-based. Conditions: Human alphaherpesvirus 1, HSV-1, Vero, concentration at which 50% CPE would be observed, read-out: MIC50. Here is the method:
(§14) Vero cell monolayers were harvested by trypsinization. The number of viable cells per ml. was determined by staining an aliquot with trypan blue and counting in a hemocytometer. Cell densities were adjusted in growth medium to contain 4×10^5 cells/mi. 96-well sterile tissue culture plates were seeded with 100 μl/well of the adjusted cell suspensions, i.e., 4×10^4 cells/well. Seeded plates were incubated overnight at 37° C. with CO2.
(§15) After overnight incubation, monolayers were approximately confluent. The growth medium was removed and the monolayers in each cell were infected with 100 μl of virus diluted in maintenance medium to produce approximately 90% cytopathogenic effect (CPE) after 2 to 3 days incubation. The virus was allowed to adsorb for 1 hour at 37° C. with 4 to 6% CO2. Controls for cell growth were overlayed with virus-free maintenance medium. The maintenance medium containing residual virus was removed.
(§16) The test compounds were dissolved and/or diluted in maintenance medium to the concentration desired for testing and were added to the wells of the plate. Aliquots (100 μl ) of each concentration were added to wells in replicate (duplicate or triplicate). Controls for virus activity were overlayed with drug-free maintenance medium. Replicate wells containing only maintenance medium served as controls for background absorbance levels.
After incubation, the medium was removed from all the wells. 100 μl of neutral red solution was added to each well and the plate was incubated at 37° C. without CO2 for 2 hours. After the 2 hour incubation, the excess neutral red solution was removed. […]
The neutral red stain taken up by the viable cells was extracted by adding 100 μl/well of acidified methanol, pH 1.0. […] The amount of neutral red stain extracted into the methanol was quantified by determining the absorbance at a wavelength of 540 nm.
The percent CPE in virus controls was determined by the following formula: [formula]
The percent CPE in cells infected with virus and treated with the test compound was determined by the following formula: [formula] […]

The nature of a further series: in vitro. The series is classed as cell-based, African green monkey. Particulars: monkey, vero cells. Here is the method:
as §14, §15, §16
After incubation, the medium was removed from all the wells. 100 μl of neutral red solution was added to each well and the plate was incubated at 37° C. without CO2 for 2 hours. After the 2 hour incubation, the excess neutral red solution was removed. The plates were washed with 100 μl/well of PBS, pH 7.2 and then the PBS was removed.
The neutral red stain taken up by the viable cells was extracted by adding 100 μl/well of acidified methanol, pH 1.0. (The acidified methanol fixed the cells to the well). The plate was allowed to stand at room temperature for at least 15 minutes to allow for maximum extraction. The amount of neutral red stain extracted into the methanol was quantified by determining the absorbance at a wavelength of 540 nm. […]

A further series deals with HSV-1 (E-377). Description: CPE inhibition assay (MTT), HSV-1 (E-377) in Vero cells. The series is classed as cell-based, herpes simplex virus type 1. Conditions: Human alphaherpesvirus 1, inhibited CPE by 50%. Here is the method: Vero cells were pregrown as monolayers in wells of COSTAR 96-well tissue culture plates using suitable cell culture media. Stock viruses were pretitered according to the method of Reed and Muench (Amer. J. Hyg. 27 493 (1938)) and diluted in cell culture medium to yield 32 CCID50 (cell culture infectious dose, 50%) units per 0.1 mL. Antiviral assays were designed to test six concentrations of each compound, from cytotoxic to noncytotoxic levels, in triplicate against each of the challenge viruses in microtiter plate wells containing cell monolayers. To each of the replicate cell cultures were added 0.1 mL of the test-compound solution and 0.1 mL of virus suspension. Two compounds were evaluated per plate. The following controls were included:
(1) Cell controls containing cells+medium;
(2) Untreated, virus-infected cell controls;
(3) Test-compound cytotoxicity controls containing uninfected, test-compound treated cells;
(4) Test-compound color controls-test-compound+medium (no cells); and
(5) Reagent (experiment medium) controls-medium only (no cells).
The covered plates were incubated at 37° C. in a humidified atmosphere containing 2% CO2. When cytopathogenic effect (CPE) in untreated virus control wells reached 100%, 20 μL of 3-(4,5-dimethyl-thiazol-2-yl)-2,5-diphenyl tetrazolium bromide (MTT) (dissolved in PBS at 5 mg/mL) was pipetted into each of the plate wells. The plates were incubated at 37° C. for six hours; then 40 μL of 30% SDS (in 0.02N HCl) was added to each well. After overnight incubation at 37° C., the blue color or the MTT formazan was measured spectrophotometrically at 570 nm. The optical density (OD) value of each culture is a function of the amount of formazan produced which is proportional to the number of viable cells. A computer program was utilized to calculate the percent (CPE) reciprocal of % CPE reduction) of the virus-infected wells and % cell viability of the uninfected test-compound control wells.
The IC50 value is the minimum test-compound concentration (μg/mL) that inhibited CPE by 50% calculated by using a regression analysis program for semilog curve fitting. The TC25 value is the minimum test-compound concentration (μg/mL) that reduced cell viability by 25%.

Converted amounts (≈) assume the structure as drawn. Read-outs that look alike come from different tables or passages of the source.

As usually defined, the inhibition is the share of the control response that was lost under treatment. A high value points to strong suppression. By CC50 is commonly meant the concentration that lowers cell viability or growth by half. Low readings indicate harm at low concentration, high ones better tolerance by the cells.

`Cc1cn([C@@H]2O[C@H](CO)[C@H]2CO)c(=O)[nH]c1=O` [Example 21, 1-([2'R, 3'R, 4'S]-3',4'-Bis(hydroxymethyl)-2'-oxetanyl)5-methyluracil]: in series [1] (HSV-1 (E-377)), the “VR (Virus Rating)” value stood at 5.9. Further, in series [1] (Human alphaherpesvirus 1, HSV-1 (E-377), minimum drug concentration that inhibited the CPE by 50%, read-out: ID50 (the source's name)), the IC50 was 0.2 µg/mL (≈ 0.826 µM). In addition, the “VR (Virus Rating)” value in series [2] (HSV-2 (MS)) was found to be 2.9. In addition, the IC50 in series [2] (Human alphaherpesvirus 2, HSV-2 (MS), minimum drug concentration that inhibited the CPE by 50%, read-out: ID50 (the source's name)) is 44.3 µg/mL (≈ 183 µM). The MCC in series [3] (HSV-1 (E-377)) came out at 320 µg/mL. Further, in series [3] (HSV-2 (MS)), the MCC is > 320 µg/mL. In series [4], the inhibition at 0.032 µM worked out at 16%, the inhibition at 0.1 µM was found to be 55%, 0.32 µM produced 97% inhibition and the inhibition at 1 µM stood at 100%. In addition, in series [4], the inhibition at 3.2 µM came out at 100% and the EC50 came out at 0.09 µg/mL (≈ 0.372 µM). In series [5], the viability at 0.1 µM was 93%, the viability at 0.32 µM stood at 84%, the viability at 1 µM was 87% and the viability at 3.2 µM worked out at 87%.

As for `CCc1cn([C@@H]2O[C@H](CO)[C@H]2CO)c(=O)[nH]c1=O` [Example 48, 1-([2'R, 3'R, 4'S]-3',4'-Bis(hydroxymethyl)-2'-oxetanyl)-5-ethyluracil], the EC50 in series [6] turned out to be 0.06 µg/mL (≈ 0.234 µM). In the series “in vitro”, the CC50 was determined as 350 µg/mL (≈ 1370 µM).

As for `O=c1[nH]c(=O)n([C@@H]2O[C@H](CO)[C@H]2CO)cc1C=CCl` [Example 50, 1-([2'R, 3'R, 4'S]-3',4'-Bis(hydroxymethyl)-2'-oxetanyl)-5-(2-chloro-1-vinyl)uracil], in series [4] (0.0032 μM), the inhibition at 0.0032 µM was determined as 7%. The same molecule showed an inhibition at 0.01 µM in series [4] (0.01 μM) of 45%. In series [4], this molecule yielded an inhibition at 0.032 µM of 90%, an inhibition at 0.1 µM of 99%, an inhibition at 0.32 µM of 98% and an inhibition at 1 µM of 99%. Besides, in series [4], the EC50 turned out to be 0.004 µg/mL (≈ 0.0139 µM). For the same molecule, in series [5], the viability at 0.1 µM stood at 100%, the viability at 0.32 µM came to 100% and the viability at 1 µM is 100%. This molecule came in with an IC50 in the series on HSV-1 (E-377) of 0.74 µg/mL (≈ 2.56 µM).

In series [4], `CC#Cc1cn([C@@H]2O[C@H](CO)[C@H]2CO)c(=O)[nH]c1=O` [Example 68, 1-([2'R, 3'R, 4'S]-3',4'-Bis(hydroxymethyl)-2'-oxetanyl)-5-propynyluracil] gave an inhibition at 0.032 µM of 3%, an inhibition at 0.1 µM of 38%, an inhibition at 0.32 µM of 92% and an inhibition at 1 µM of 99%. Besides, in series [4], the inhibition at 3.2 µM came out at 100% and the EC50 amounted to 0.045 µg/mL (≈ 0.169 µM). The viability at 0.032 µM in series [5] (0.032 μM) stood at 100%. In addition, in series [5], the viability at 0.1 µM worked out at 100%, the viability at 0.32 µM came out at 100%, the viability at 1 µM turned out to be 98% and the viability at 3.2 µM was 100%.

Values taken from patent publication US5420276A, “Analogs of oxetanyl purines and pyrimidines” (Abbott Laboratories, priority 1993, dated 1995).
